Paper PMC8343220, “The selectivity of α‐adrenoceptor agonists for the human α1A, α1B, and α1D‐adrenoceptors” (Pharmacology Research & Perspectives, 2021)
Marks after values point to notes of the source that are not given here.

What was measured:
[1] = target: T1, human α1D‐adrenoceptor (full length) (Homo sapiens, UniProt P25100); test: ^3H‐cAMP accumulation, CHO‐α1D cells; type: cell-based; details: cAMP accumulation without forskolin
T1 construct: human α1D‐adrenoceptor (full length) were used; expressed in transfected cells; host or cells: CHO-K1
T1 sequence (P25100 1-572): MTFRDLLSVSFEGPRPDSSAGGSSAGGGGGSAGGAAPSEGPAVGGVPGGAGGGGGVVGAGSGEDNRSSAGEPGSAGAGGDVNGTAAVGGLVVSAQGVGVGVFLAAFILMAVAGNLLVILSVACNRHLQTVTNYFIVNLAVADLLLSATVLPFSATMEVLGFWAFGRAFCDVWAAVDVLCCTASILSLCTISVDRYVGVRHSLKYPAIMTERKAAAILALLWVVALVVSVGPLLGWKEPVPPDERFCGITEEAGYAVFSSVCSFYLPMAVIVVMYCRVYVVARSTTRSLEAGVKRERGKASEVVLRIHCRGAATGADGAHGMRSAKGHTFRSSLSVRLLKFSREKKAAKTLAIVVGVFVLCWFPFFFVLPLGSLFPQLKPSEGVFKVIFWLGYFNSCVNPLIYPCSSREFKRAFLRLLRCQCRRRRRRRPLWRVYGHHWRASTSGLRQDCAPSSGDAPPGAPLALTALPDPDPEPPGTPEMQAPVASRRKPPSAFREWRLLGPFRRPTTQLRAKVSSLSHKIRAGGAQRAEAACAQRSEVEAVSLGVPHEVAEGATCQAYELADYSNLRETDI

[2] = target: T1, human α1D‐adrenoceptor (full length); test: Intracellular free calcium mobilization, CHO‐α1D cells; type: cell-based
[3] = test system: parental CHO cell line without any transfected receptors; test: Forskolin‐stimulated cAMP accumulation, parent CHO cells without transfected receptors; type: cell-based, Chinese hamster; details: CHO cells without transfected receptors; in presence of forskolin
[4] = target: T1, human α1D‐adrenoceptor (full length); test: ERK1/2‐phosphorylation (Surefire Alphascreen), CHO‐α1D cells; type: cell-based
[5] = target: T2, human α1A‐adrenoceptor (Homo sapiens, UniProt P35348); test: ^3H‐prazosin whole‐cell radioligand binding, CHO‐α1A cells
T2 construct: expressed in transfected cells; host or cells: CHO-K1
T2 sequence (P35348 1-466): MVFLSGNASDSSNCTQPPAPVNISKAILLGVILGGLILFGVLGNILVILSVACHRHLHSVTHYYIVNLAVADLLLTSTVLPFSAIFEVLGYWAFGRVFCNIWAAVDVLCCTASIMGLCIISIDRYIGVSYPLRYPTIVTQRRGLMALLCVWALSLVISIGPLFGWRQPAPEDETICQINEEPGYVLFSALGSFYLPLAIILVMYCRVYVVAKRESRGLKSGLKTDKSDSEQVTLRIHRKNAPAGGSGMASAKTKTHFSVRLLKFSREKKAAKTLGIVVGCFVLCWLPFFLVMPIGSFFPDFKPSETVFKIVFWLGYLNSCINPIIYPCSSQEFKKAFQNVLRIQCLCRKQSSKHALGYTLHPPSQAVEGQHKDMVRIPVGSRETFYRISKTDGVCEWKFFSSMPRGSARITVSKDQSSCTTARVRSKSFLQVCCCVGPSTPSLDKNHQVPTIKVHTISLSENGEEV

[6] = target: T2, human α1A‐adrenoceptor; test: ^3H‐cAMP accumulation in the presence of 10 μM forskolin, CHO‐α1A cells; type: cell-based; details: CHO‐α1A cells
[7] = target: T1, human α1D‐adrenoceptor (full length); test: ^3H‐cAMP accumulation in the presence of 10 μM forskolin, CHO‐α1D cells; type: cell-based; details: CHO‐α1D cells; for cAMP (in presence of forskolin) Log EC50: log values given negative
[8] = target: T2, human α1A‐adrenoceptor; test: ERK1/2‐phosphorylation (Surefire Alphascreen), CHO‐α1A cells; type: cell-based
[9] = target: T1, human α1D‐adrenoceptor (full length); test: ^3H‐prazosin whole‐cell radioligand binding, CHO‐α1D cells; details: for Kd: CHO‐α1D cells
[10] = test system: parental CHO cell line without any transfected receptors; test: Intracellular calcium mobilization, parent CHO cells without transfected receptors; type: cell-based, Chinese hamster; details: Cricetulus griseus; CHO cells without transfected receptors; response at maximum concentration used (c2), as % of ionomycin (10μM) response; mean ± s.e.m.; read-out: Intracellular calcium release % ionomycin
[11] = target: T2, human α1A‐adrenoceptor; test: ^3H‐cAMP accumulation, CHO‐α1A cells; type: cell-based; details: CHO‐α1A cells; for cAMP accumulation % forskolin: % of 10 µM forskolin response
[12] = target: T2, human α1A‐adrenoceptor; test: Intracellular free calcium mobilization, CHO‐α1A cells; type: cell-based
[13] = test system: parental CHO cell line without any transfected receptors; test: ERK1/2‐phosphorylation, parent CHO cells without transfected receptors; type: cell-based, Chinese hamster; details: Cricetulus griseus, CHO; read-out: ERK1/2-phosphorylation % PDBu at 100μM
[14] = target: T3, human α1B‐adrenoceptor (Homo sapiens, UniProt P35368); test: ^3H‐prazosin whole‐cell radioligand binding, CHO‐α1B cells
T3 construct: expressed in transfected cells; host or cells: CHO-K1
T3 sequence (P35368 1-520): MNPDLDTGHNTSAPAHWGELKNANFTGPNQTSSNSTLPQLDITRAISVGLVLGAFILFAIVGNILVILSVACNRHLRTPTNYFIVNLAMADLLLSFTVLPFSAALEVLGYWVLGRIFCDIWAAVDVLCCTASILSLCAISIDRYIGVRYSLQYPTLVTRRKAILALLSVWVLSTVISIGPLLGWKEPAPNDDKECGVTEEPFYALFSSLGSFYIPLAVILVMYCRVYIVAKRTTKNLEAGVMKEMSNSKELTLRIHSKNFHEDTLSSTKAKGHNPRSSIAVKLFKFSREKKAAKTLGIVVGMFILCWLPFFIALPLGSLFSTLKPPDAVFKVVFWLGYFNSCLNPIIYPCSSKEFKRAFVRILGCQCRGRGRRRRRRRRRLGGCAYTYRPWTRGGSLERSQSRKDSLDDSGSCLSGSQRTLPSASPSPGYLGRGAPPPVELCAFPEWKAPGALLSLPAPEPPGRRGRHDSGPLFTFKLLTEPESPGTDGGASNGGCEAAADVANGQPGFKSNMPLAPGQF

[15] = target: T3, human α1B‐adrenoceptor; test: Intracellular free calcium mobilization, CHO‐α1B cells; type: cell-based
[16] = target: T3, human α1B‐adrenoceptor; test: ^3H‐cAMP accumulation, CHO‐α1B cells; type: cell-based; details: CHO‐α1B cells; response at 100 µM ligand (no EC50 given)
[17] = target: T3, human α1B‐adrenoceptor; test: ERK1/2‐phosphorylation (Surefire Alphascreen), CHO‐α1B cells; type: cell-based
[18] = target: T3, human α1B‐adrenoceptor; test: ^3H‐cAMP accumulation in the presence of 10 μM forskolin, CHO‐α1B cells; type: cell-based; details: CHO‐α1B cells
[19] = fold increase of the forskolin response

N=C(N)N/N=C/c1c(Cl)cccc1Cl [Guanabenz]
cAMP Log EC50 [1]: No response | Intracellular calcium release % Ionomycin at 100 µM [2]: 20.2 ± 5.1% | cAMP accumulation (in presence of forskolin) Log EC50 [3]: No response | ERK1/2‐phosphorylation % PDBu at 100 µM [4]: 20.8 ± 6.6% | Kd ([5]; Log KD α1A, ^3H‐prazosin whole cell binding, CHO‐α1A cells, given as log KD (negative), mean ± SEM): 331 nM | EC50 ([6]; 10 μM forskolin, read-out: cAMP accumulation (in presence of forskolin) Log EC50 (converted)): 145 nM | cAMP (in presence of forskolin) Log EC50 [7]: No response | ERK1/2‐phosphorylation % PDBu [8]: 68.4 ± 8.6% | EC50 ([8]; CHO‐α1A cells, 2–4 min, ^a bi‐phasic: initial stimulatory part, ^b also active in parent CHO cells, read-out: ERK1/2‐phosphorylation Log EC50 (converted)): 204 nM | Kd ([9]; 3H‐prazosin binding Log KD, whole‐cell binding (from Table 1), log values given negative): 955 nM | Kd ([9]; Log KD α1D, ^3H‐prazosin whole cell binding, given as log KD (negative), mean ± SEM, 'early plateau' = specific binding not fully inhibited): 955 nM | Emax [10]: 23.5 ± 7.4% | EC50 ([11]; 5 h, read-out: cAMP accumulation Log EC50 (converted)): 1820 nM | cAMP accumulation % forskolin [11]: 2.1 ± 0.3% | Intracellular calcium release % ionomycin [12]: 17.8 ± 3.2% | EC50 ([12]; CHO‐α1A cells, given as log EC50 (negative), read-out: Intracellular calcium release Log EC50 (converted)): 110 nM | Emax at 100 µM [13]: 8.5 ± 3.1%

CC(N)C(O)c1ccc(O)c(O)c1 (stereo not drawn) [α‐Methylnorepinephrine]
cAMP Log EC50 [1]: No response | Intracellular calcium release % ionomycin [2]: 29.9 ± 3.6% | Intracellular calcium release Log EC50 [2]: −7.02 ± 0.10 | Log efficacy ratio KD /EC50 [2]: 2.18 | Log IC50 α1B, ^3H‐prazosin whole cell binding [14]: IC50>−3 | ERK1/2‐phosphorylation % PDBu [4]: 27.7 ± 4.9% | ERK1/2‐phosphorylation Log EC50 [4]: −5.74 ± 0.11 | Affinity selectivity ratio α1A vs α1B [5]: >20.9 fold | Log KD α1A, ^3H‐prazosin whole cell binding [5]: −4.32 ± 0.04 | Intracellular calcium release % ionomycin [15]: 69.1 ± 2.6% | Intracellular calcium release Log EC50 [15]: −8.10 ± 0.11 | Log efficacy ratio KD /EC50 [15]: >5.10 | cAMP accumulation % forskolin at 100 µM [16]: 129.7 ± 20.5% | cAMP accumulation (in presence of forskolin) Log EC50 ([6]; 10 μM forskolin): −5.74 ± 0.10 | cAMP accumulation (in presence of forskolin) Fold increase [6, 19]: 2.49 ± 0.05 fold | cAMP (in presence of forskolin) Fold increase [7, 19]: 1.23 ± 0.06 | cAMP (in presence of forskolin) Log EC50 [7]: −6.05 ± 0.12 | ERK1/2‐phosphorylation % PDBu [8]: 87.5 ± 6.3% | ERK1/2‐phosphorylation Log EC50 [8]: −6.86 ± 0.12 ^a | 3H‐prazosin binding Log KD [9]: −4.84 | Affinity selectivity ratio α1A vs α1D [9]: 3.3 fold | Affinity selectivity ratio α1B vs α1D [9]: >69.2 fold | Log KD α1D, ^3H‐prazosin whole cell binding [9]: −4.84 ± 0.14^early plateau | ERK1/2‐phosphorylation % PDBu [17]: 90.6 ± 4.4% | ERK1/2‐phosphorylation Log EC50 [17]: −6.75 ± 0.13 | cAMP accumulation Log EC50 ([11]; 5 h): −5.09 ± 0.06 | cAMP accumulation % forskolin [11]: 166.8 ± 7.4% | cAMP accumulation (in presence of forskolin) Fold increase [18, 19]: 3.09 ± 0.21 fold | cAMP accumulation (in presence of forskolin) Log EC50 ([18]; in presence of forskolin): −5.56 ± 0.05 | Intracellular calcium release % ionomycin [12]: 65.2 ± 2.6% | Intracellular calcium release Log EC50 [12]: −7.69 ± 0.07 | Log efficacy ratio KD /EC50 [12]: 3.37
